Laboratory results reported in patent US20140235848A1, “METHOD FOR MAKING A PRECURSOR OF L-FUCOSE FROM D-GLUCOSE” (Glycom A/S, priority 2011, published 2014).

Test: Partition studies between organic solvent and water
Assay type: physicochemical
Details: for affinity to organic solvents as compared to aqueous media / solubility in organic versus aqueous solvents: conclusion in words from the partition studies
Procedure: 1,2-O-Cyclohexylidene-6-deoxy-β-L-talofuranose (197 mg) was partitioned between water (10 mL) and methylene chloride (10 mL), layers separated and the residual amount of solutions in the separatory funnel were partitioned with extra amount of water (5 mL) and methylene chloride (5 mL). The combined organic phases were evaporated and dried in vacuo (50° C., <1 mbar, 1 hour) to give 140 mg of the title compound. The aqueous solution gave 53 mg after lyophilisation and drying in vacuo (50° C., <1 mbar, 2 hrs). Using the same procedure, partition between ethyl acetate and water provided 127 mg of the title compound from ethyl acetate phase and 70 mg from the aqueous phase.
Analogously, 1,2-O-isopropylidene-6-deoxy-β-L-talofuranose (150 mg) was partitioned between methylene chloride (24 mg) and aqueous phase (126 mg). Partition between ethyl acetate and water furnished 7 mg and 143 mg of the title compound, respectively.

Structure (SMILES)	affinity to organic solvents as compared to aqueous media	solubility in organic versus aqueous solvents	logP (solvent system CH2Cl2-water)	logP (solvent system ethyl acetate-water)
C[C@H](O)[C@H]1O[C@@H]2OC(C)(C)O[C@@H]2[C@@H]1O [1,2-O-isopropylidene-6-deoxy-β-L-talofuranose]	higher affinity to aqueous medium	highly soluble in aqueous solutions and almost insoluble in organic solvents	0.72	0.79
C[C@H](O)[C@H]1O[C@@H]2OC3(CCCCC3)O[C@@H]2[C@@H]1O [6-deoxy-1,2-O-cyclohexylidene-β-L-talofuranose]	higher affinity to organic solvents as compared to aqueous media	much higher solubility of compound 1G in organic solvents as compared to aqueous solvents		
